# Assay results as given in patent publication US9725483B2, “Compounds for the treatment and/or care of the skin and/or mucous membranes and their use in cosmetic or pharmaceutical compositions” (LUBRIZOL ADVANCED MATERIALS, INC., priority 2012, dated 2017).
# Residues, ends and D or L forms follow the SMILES beside them.
# Experiments:
# collagenase [1] = assay: Anti-collagenase activity, fluorescein-derivatized gelatin; type: biochemical; settings: collagenase 0.4 U/mL, 2 hours
# Description: Different concentrations of the peptide Ac-L-Ala-L-Thr-L-Asn-L-Thr-OH (Ac-(SEQ ID NO: 16)-OH) were incubated in a 96-well plate together with fluorescein-derivatized gelatin, a fluorescent marker. Next, collagenase (0.4 U/mL) was added and incubated at room temperature protected from sunlight for 2 hours, after which the fluorescence (λexc=495 nm and λem=515 nm) was measured at different points, thus the breakage in the derivatized gelatin could be quantified. As a positive control 1,10-phenanthroline was used, a metal chelator which acts as an inhibitor of metalloproteases.
# [2] = test system: IL-8 release induced by LL-37 in primary human keratinocytes; assay: Inhibition of the release of IL-8 induced by LL-37 in primary human keratinocytes (ELISA); type: cell-based; settings: carrier = 100%
# Description: (§1) Solutions of the compounds of the invention were prepared in Eppendorf tubes at the desired concentrations in complete Epilife® medium with and without LL-37 at 50 μg/mL in a final volume of 250 μL. The mixtures were incubated in rotation for 1 hour at room temperature. After the preincubation hour the samples were collected and they were given a quick pulse in the centrifuge to push all the solution to the bottom of the tube. Without removing the incubation medium, it was added to the 50 μL/well cells of the previous mixtures in quadruplicate and the plate was incubated at 37° C. in a CO2 incubator for 1 hour. After the hour of incubation, 50 μL/well of complete Epilife® medium were added. They were incubated for another 5 hours to allow the release of pro-inflammatory cytokines induced by LL-37 for their subsequent quantification by ELISA. After the 5 hours, the […] of supernatants were collected with the multi-channel pipette and passed to a new 96-well plate and the quantity of IL-6 and IL-8 released was determined by the Human IL-6 ELISA Ready-SET-GO!® and Human IL-8 ELISA Ready-SET-GO!® commercial kits (eBioscience, Inc.) following the supplier's instructions. The absorbency of each well was determined by reading a Multiskan Ascent Reader spectrophotometer at 450 nm correcting for each determination with its corresponding reading at 570 nm. The standardized relative levels of IL-6 and IL-8 were calculated with regard to the absorbency corresponding to the treatment of the cells with carrier. Next, the total number of cells per well was quantified with Cristal Violeta, in order to be able to calculate the percentage of interleukins released per cell.
# (§2) In table 4 the results obtained from the release of IL-8 are detailed.
# [3] = test system: IL-6 release induced by LL-37 in primary human keratinocytes; assay: Inhibition of the release of IL-6 induced by LL-37 in primary human keratinocytes (ELISA); type: cell-based; settings: carrier = 100%
# Description: as §1, §2
# tyrosinase [4] = assay: Anti-tyrosinase activity, L-DOPA substrate; type: biochemical
# Description: Different concentrations of the peptide […]-OH (Ac-(SEQ ID NO: 16)-OH) were incubated in a 96-well plate together with L-DOPA in a HEPES buffer for 30 minutes at 37° C. After incubation, the tyrosinase enzyme was added and incubated for 10 minutes. The reaction was stopped freezing the plate at -20° C. for 5 minutes, after which the absorbency was measured at λexc=490 nm in a microplate reader. As a positive control kojic acid was added, a substance with known anti-tyrosinase activity.
# [5] = test system: human epidermal melanocytes; assay: Inhibition of melanogenesis in human epidermal melanocytes; type: cell-based; settings: repeated treatment to day 10, control (culture medium) = 100
# Description: Primary human melanocytes were cultivated in medium 254 supplemented by HMGS and antibiotics. The cells were grown for 72 hours after which the medium was changed to 254 supplemented by HMGS-2 and antibiotics. The cells were grown until confluence for 2 weeks, changing the medium every 2-3 days. After two weeks, the cells were trypsinized and seeded in 6-well plates. After being incubated for a whole night at 37° C. and 5% of CO2, the first treatment with the peptide was carried out at different concentrations. As a negative control, only medium was added. The treatment was repeated on days 3, 6, 8 and 10, after which the cells were trypsinized and the number counted with a cell counter. Melanin was quantified by measuring the absorbency at 450 nm with a microplate reader and the value was standardized with regard to the total number of cells per well, expressed as picograms of melanin per cell from a calibration line prepared with synthetic melanin dissolved in 1 N NaOH with 10% DMSO.
# tyrosinase [6] = assay: cell-based or functional assay
# collagenase [7] = assay: cell-based or functional assay
# [8] = biological target: LL-37, cathelicidin C-terminal antimicrobial peptide (UniProt P49913); assay: cell-based or functional assay
# [9] = peptide 0.025 mg/mL + LL-37 0.05 mg/ml
# [10] = peptide 0.1 mg/mL + LL-37 0.05 mg/ml
# [11] = peptide 0.5 mg/mL + LL-37 0.05 mg/ml
compound,measurement,setting,value
"c1cnc2c(c1)ccc1cccnc12 [1,10-phenanthroline, reference compound]",% collagenase inhibition,collagenase [1]; 40 μg/mL,95.19%
CC(=O)N[C@@H](C)C(=O)N[C@H](C(=O)N[C@@H](CC(N)=O)C(=O)N[C@H](C(=O)O)[C@@H](C)O)[C@@H](C)O [Ac-L-Ala-L-Thr-L-Asn-L-Thr-OH] (Ac-ATNT-OH),% IL-8,[2]; [9],132.70%
same,% IL-8,[2]; [10],124.76%
same,% IL-8,[2]; [11],109.39%
same,% IL-6,[3]; [9],107.25%
same,% IL-6,[3]; [10],94.65%
same,% IL-6,[3]; [11],92.90%
same,% collagenase inhibition,collagenase [1]; 2 mg/mL,29.21%
same,% collagenase inhibition,collagenase [1]; 10 mg/mL,100%
same,% tyrosinase inhibition,tyrosinase [4]; 2 mg/mL,38.23%
same,% tyrosinase inhibition,tyrosinase [4]; 3 mg/mL,76.01%
same,% tyrosinase inhibition,tyrosinase [4]; 4 mg/mL,86.45%
same,% melanin (pg/cel),[5]; 0.25 mg/mL,45.7 ± 3.2%
same,% melanin (pg/cel),[5]; 0.625 mg/mL,55.8 ± 2.8%
"O=c1cc(CO)occ1O [kojic acid, reference compound]",% tyrosinase inhibition,tyrosinase [4]; 140 μg/mL,85.79%
Ac-L-Ala-L-Thr-L-Asn-L-Thr-OH (Ac-(SEQ ID NO: 16)-OH) (peptide),"% tyrosinase inhibition (L-DOPA oxidation, absorbance 490 nm), peptide 2 mg/mL",tyrosinase [6],38.2%
same,"% tyrosinase inhibition (L-DOPA oxidation, absorbance 490 nm), peptide 3 mg/mL",tyrosinase [6],76%
same,"% tyrosinase inhibition (L-DOPA oxidation, absorbance 490 nm), peptide 4 mg/mL",tyrosinase [6],86.5%
same,"% collagenase inhibition (cleavage of fluorescein-derivatized gelatin, collagenase 0.4 U/mL), peptide 2 mg/mL",collagenase [7],29.2%
same,"% collagenase inhibition (cleavage of fluorescein-derivatized gelatin, collagenase 0.4 U/mL), peptide 10 mg/mL",collagenase [7],100%
same,"% IL-6 released by primary human keratinocytes (ELISA), peptide 0.025 mg/mL; carrier 100%, LL-37 0.05 mg/ml alone 122.28%",[8],107%
same,"% IL-6 released by primary human keratinocytes (ELISA), peptide 0.1 mg/mL + LL-37 0.05 mg/ml; carrier 100%, LL-37 alone 122.28%",[8],94.7%
same,"% IL-6 released by primary human keratinocytes (ELISA), peptide 0.5 mg/mL + LL-37 0.05 mg/ml; carrier 100%, LL-37 alone 122.28%",[8],92.9%
same,"% IL-8 released by primary human keratinocytes (ELISA), peptide 0.025 mg/mL + LL-37 0.05 mg/ml; carrier 100%, LL-37 alone 142.65%",[8],133%
same,"% IL-8 released by primary human keratinocytes (ELISA), peptide 0.1 mg/mL + LL-37 0.05 mg/ml; carrier 100%, LL-37 alone 142.65%",[8],125%
same,"% IL-8 released by primary human keratinocytes (ELISA), peptide 0.5 mg/mL + LL-37 0.05 mg/ml; carrier 100%, LL-37 alone 142.65%",[8],109%
Ac-L-Ser-L-Val-L-Arg-L-Val-L-Ala-L-Val-NH2 (Ac-(SEQ ID NO: 2)-NH2) (peptide),"% IL-6 released by primary human keratinocytes (ELISA), peptide 0.025 mg/mL + LL-37 0.05 mg/ml; carrier 100%, LL-37 alone 122.28%",[8],108%
same,"% IL-6 released by primary human keratinocytes (ELISA), peptide 0.1 mg/mL + LL-37 0.05 mg/ml; carrier 100%, LL-37 alone 122.28%",[8],96%
same,"% IL-6 released by primary human keratinocytes (ELISA), peptide 0.5 mg/mL + LL-37 0.05 mg/ml; carrier 100%, LL-37 alone 122.28%",[8],93.2%
same,"% IL-8 released by primary human keratinocytes (ELISA), peptide 0.025 mg/mL + LL-37 0.05 mg/ml; carrier 100%, LL-37 alone 142.65%",[8],133%
same,"% IL-8 released by primary human keratinocytes (ELISA), peptide 0.1 mg/mL + LL-37 0.05 mg/ml; carrier 100%, LL-37 alone 142.65%",[8],125%
same,"% IL-8 released by primary human keratinocytes (ELISA), peptide 0.5 mg/mL + LL-37 0.05 mg/ml; carrier 100%, LL-37 alone 142.65%",[8],109%
Ac-L-Ser-L-Val-L-Arg-L-Val-L-Ala-L-Val-NH2 (Ac-SVRVAV-NH2),% IL-8,[2]; [9],132.92%
same,% IL-8,[2]; [10],125.05%
same,% IL-8,[2]; [11],109.24%
same,% IL-6,[3]; [9],108.35%
same,% IL-6,[3]; [10],95.96%
same,% IL-6,[3]; [11],93.15%
"LL-37: cathelicidin C-terminal antimicrobial peptide, used to induce release of IL-6 and IL-8 (LLGDFFRKSKEKIGKEFKRIVQRIKDFLRNLVPRTES; Antibacterial peptide LL-37; UniProt P49913 134-170, looked up) [reference compound]",% IL-8,[2]; LL37 0.05 mg/ml alone (positive control),142.65%
same,% IL-6,[3]; LL-37 0.05 mg/ml alone (positive control),122.28%
